Measured values: patent US11339147B2, “Lactam compound as FXR receptor agonist” (CSPC ZHONGQI PHARMACEUTICAL TECHNOLOGY (SHIJIAZHUANG) CO., …, priority 2017, dated 2022)

Test system: NASH model
Test: In vivo efficacy test: NASH model in mice by high-fat diet feeding and CCl4 induction
Parameters: species or system C57/BL6 mice
Conditions: intragastric once a day for 28 days; for gene expression of collagen-alpha in the liver: FIG. 3; for total cholesterol (TC) and triglyceride (TG) levels in the liver: FIG. 2
From the text: In this test, NASH model was established on mice by two procedures of high-fat diet feeding and CCl4 induction to test the effects of compounds on treating NASH. Briefly, the modeling process includes feeding C57/BL6 mice with high-fat diet to induce obesity in mice and produce non-alcoholic fatty liver disease; selecting 40 obese mice with a body weight >35 g when >80% of mice reached 35 g or more, continuously feeding with high-fat diet while intraperitoneal injection of CCl4 twice a week for four weeks; as for 10 normal animals in the same batch, feeding intraperitoneally with olive oil as a healthy control. The day when CCl4 feeding was started was set to the 0th day, and the time when CCl4 feeding was started was set to 0th hour. On the day when CCl4 feeding was started, the intragastric administration was started, 5 mL/kg once a day for 4 weeks, namely 28 days. Test doses of the compound were 15 mg/kg, 30 mg/kg, 60 mg/kg, respectively; healthy control and vehicle control were given vehicle 1% hydroxypropyl methylcellulose (HPMC). During the whole experiment period, the animals were weighed and their health was monitored every day. If there are special circumstances, the relevant project leader should be notified in time and the corresponding records should be made. On the 28th day, after all the animals were weighed, they were euthanized after narcotizing and blood collecting, and the liver was taken. After the blood sample was processed into serum, ALT/AST/TG/TC were tested; for parts of the liver samples, liver TG and TC and the relative expression of collagen-1 alpha gene were tested, and for the other part, liver samples was taken for pathological analysis.

In the case of `O=C(O)c1cnc(N2C(=O)CCc3cc(OCc4c(-c5c(Cl)cccc5Cl)noc4C4CC4)ccc32)c(Cl)c1` [Compound 37], the “blood biochemical ALT/AST indicators” value (15 mg/kg, FIG. 1) was “significant decrease”, the “gene expression of collagen-alpha in the liver” value (15 mg/kg) was “significant decrease” and the “nonalcoholic fatty liver score NAFLD (overall evaluation, pathological tissue analysis)” value (15 mg/kg, FIG. 5) was “significant reduction”. The “total cholesterol (TC) and triglyceride (TG) levels in the liver” value (30 mg/kg) was “significant decrease”, the “total cholesterol (TC) and triglyceride (TG) levels in the liver” value (60 mg/kg) was “significant decrease” and the “gene expression of collagen-alpha in the liver” value (60 mg/kg) was “significant decrease”. The “liver fibrosis (pathological tissue analysis)” value (60 mg/kg, FIG. 4) was “significant reduction”, the “nonalcoholic fatty liver score NAFLD (overall evaluation, pathological tissue analysis)” value (60 mg/kg, FIG. 5) was “significant reduction” and the “single steatosis, inflammatory molecules and ballooning change” value (60 mg/kg, FIG. 5) was “remarkable efficacy”.
